Inhibition data for 24 compounds are collected here from US8546381B2, “Bridged heterocyclic compounds and methods of use” (Medivation Technologies, Inc., priority 2008, dated 2013).

Experiment [1] has as its target T1, human recombinant adrenergic α2A receptor (Homo sapiens, UniProt P08913).
T1 construct: expressed in transfected cells; host or cells: insect Sf9 cells
T1 sequence (P08913 1-465): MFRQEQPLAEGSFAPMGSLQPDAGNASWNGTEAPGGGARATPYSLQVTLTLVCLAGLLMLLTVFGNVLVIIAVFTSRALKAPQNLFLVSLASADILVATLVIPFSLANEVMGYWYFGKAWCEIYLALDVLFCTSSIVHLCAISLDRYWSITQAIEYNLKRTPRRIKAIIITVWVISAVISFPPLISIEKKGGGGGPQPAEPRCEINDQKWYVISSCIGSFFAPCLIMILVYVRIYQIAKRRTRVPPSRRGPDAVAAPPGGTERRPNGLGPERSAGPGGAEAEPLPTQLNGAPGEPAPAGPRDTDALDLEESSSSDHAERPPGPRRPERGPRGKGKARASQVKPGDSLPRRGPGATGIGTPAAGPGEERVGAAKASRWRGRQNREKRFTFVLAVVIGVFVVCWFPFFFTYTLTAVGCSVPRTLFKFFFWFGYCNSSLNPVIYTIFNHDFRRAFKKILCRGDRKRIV
As to the kind of experiment: Adrenergic α2A radioligand binding ([3H]MK-912). As to conditions: 1 μM; read-out: Adrenergic α2A, inhibition of ligand binding (1 μM). How it is done:
To evaluate in radioligand binding assays the activity of compounds of the invention, human recombinant adrenergic α2A receptor expressed in insect Sf9 cells (Uhlen S et al. J Pharmacol Exp Ther. 271:1558, 1994) in a modified Tris-HCl buffer (50 mM Tris-HCl, pH 7.4, 12.5 mM MgCl2, 2 mM EDTA) was used. Compounds of invention were incubated with 1 nM [^3H]MK-912 for 60 minutes at 25° C. MK912 is (2S-trans)-1,3,4,5′,6,6′,7,12b-octahydro-1′,3′-dimethyl-spiro[2H-benzofuro[2,3-a]quinolizine-2,4′(1′H) -pyrimidin]-2′(3′H)-one hydrochloride Non-specific binding was estimated in the presence of 10 μM WB-4101 (2-(2,6-Dimethoxyphenoxyethyl)aminomethyl-1,4-benzodioxane hydrochloride). Receptor proteins were filtered and washed, the filters were then counted to determine [^3H]MK-912 specifically bound. Compounds were screened at 1 μM or lower, using 1% DMSO as vehicle. Biochemical assay results are presented as the percent inhibition of specific binding in Table 3.

Experiment [2] concerns the target T2, human recombinant dopamine D2L receptor (Homo sapiens, UniProt P14416).
T2 construct: expressed in transfected cells; host or cells: CHO cells
Put plainly: Dopamine D2L radioligand binding ([3H]Spiperone). The following applies: read-out: Dopamine (1 μM) D2L, inhibition of ligand binding. The method, boiled down: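 Receptor expressed in CHO cells, in Tris-HCl pH 7.4 buffer with 150 mM NaCl. Binding used 0.16 nM [3H]spiperone for 120 min at 25 °C, with non-specific binding defined by 10 μM haloperidol and filtration counting.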

In experiment [3] the target is T3, human recombinant serotonin (5-Hydroxytryptamine) 5-HT6 receptor (Homo sapiens, UniProt P50406).
T3 construct: expressed in transfected cells; host or cells: human HeLa cells
T3 sequence (P50406 whole entry): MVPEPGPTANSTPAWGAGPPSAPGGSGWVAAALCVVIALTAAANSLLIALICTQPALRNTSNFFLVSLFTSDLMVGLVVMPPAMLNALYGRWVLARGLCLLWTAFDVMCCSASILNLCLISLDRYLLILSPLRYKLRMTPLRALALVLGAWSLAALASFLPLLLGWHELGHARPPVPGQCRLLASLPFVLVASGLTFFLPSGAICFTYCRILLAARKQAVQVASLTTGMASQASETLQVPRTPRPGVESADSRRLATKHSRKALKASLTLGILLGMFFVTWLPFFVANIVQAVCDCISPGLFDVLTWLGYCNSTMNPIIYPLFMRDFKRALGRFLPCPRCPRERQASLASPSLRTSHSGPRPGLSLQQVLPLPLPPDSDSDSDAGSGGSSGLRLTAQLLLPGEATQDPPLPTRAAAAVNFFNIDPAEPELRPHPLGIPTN
As to the kind of experiment: Serotonin 5-HT6 radioligand binding ([3H]LSD). As to conditions: read-out: Serotonin 5-HT6, inhibition of ligand binding (1 μM). The method, boiled down: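 Membranes of HeLa cells expressing human 5-HT6 were incubated with 1.5 nM [3H]LSD in Tris-HCl buffer pH 7.4 for 120 min at 37° C, with non-specific binding defined by 5 μM 5-HT.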

Experiment [4] addresses T4, human recombinant serotonin (5-Hydroxytryptamine) 5-HT2A receptor (Homo sapiens, UniProt P28223).
T4 construct: expressed in transfected cells; host or cells: CHO-K1 cells
Put plainly: Serotonin 5-HT2A radioligand binding ([3H]Ketanserin). The following applies: read-out: Serotonin 5-HT2A, inhibition of ligand binding (1 μM). The method in brief:
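CHO-K1 membranes with human 5-HT2A in 50 mM Tris-HCl pH 7.4, incubated with 0.5 nM [3H]Ketanserin for 60 min at 25 °C; non-specific binding defined with 1 μM mianserin. Bound ligand measured by filtration and counting.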

T2 sequence (P14416 whole entry): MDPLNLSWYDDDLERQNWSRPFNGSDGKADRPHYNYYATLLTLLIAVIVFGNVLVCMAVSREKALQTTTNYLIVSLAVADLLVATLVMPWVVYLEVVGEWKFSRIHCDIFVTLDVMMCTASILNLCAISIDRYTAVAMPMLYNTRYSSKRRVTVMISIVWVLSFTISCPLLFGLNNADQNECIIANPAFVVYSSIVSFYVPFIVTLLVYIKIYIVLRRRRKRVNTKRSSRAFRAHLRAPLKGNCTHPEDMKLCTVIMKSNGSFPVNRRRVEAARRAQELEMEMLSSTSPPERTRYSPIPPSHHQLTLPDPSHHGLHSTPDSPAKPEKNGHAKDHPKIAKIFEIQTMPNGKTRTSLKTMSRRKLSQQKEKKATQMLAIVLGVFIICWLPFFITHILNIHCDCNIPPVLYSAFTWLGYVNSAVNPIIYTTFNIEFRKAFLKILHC
T4 sequence (P28223 whole entry): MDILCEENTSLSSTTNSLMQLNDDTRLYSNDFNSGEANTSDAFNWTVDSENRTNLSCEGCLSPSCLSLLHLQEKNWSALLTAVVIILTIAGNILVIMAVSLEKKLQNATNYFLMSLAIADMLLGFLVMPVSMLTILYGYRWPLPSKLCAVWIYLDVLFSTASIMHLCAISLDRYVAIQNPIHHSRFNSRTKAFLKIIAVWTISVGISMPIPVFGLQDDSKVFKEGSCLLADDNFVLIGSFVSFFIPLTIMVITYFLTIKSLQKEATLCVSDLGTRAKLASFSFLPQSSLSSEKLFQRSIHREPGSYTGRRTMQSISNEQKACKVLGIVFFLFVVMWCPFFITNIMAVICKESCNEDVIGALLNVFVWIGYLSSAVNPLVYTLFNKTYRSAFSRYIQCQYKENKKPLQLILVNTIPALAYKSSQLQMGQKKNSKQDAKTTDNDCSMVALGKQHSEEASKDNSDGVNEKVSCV

Regarding `CN1C2CCC1c1c(n(CCc3ccc(C(F)(F)F)nc3)c3cc(F)c(Cl)cc13)C2` (stereo not drawn) [Compound 77], the inhibition at 1 µM is 30% in experiment [1], 4% in experiment [2], 21% in experiment [3] and 26% in experiment [4].

As to `CN1C2CCC1c1c(n(CCC(=O)O)c3ccc(Cl)cc13)C2` (stereo not drawn) [Compound 72], the inhibition at 1 µM in experiment [1] is 6%; in experiment [2], 3%; in experiment [3] it was -1%; in experiment [4], -6%.

`Cc1ccc2c(c1)c1c(n2CC(C)(O)c2ccc(Cl)cc2)CC2CCC1N2C` (stereo not drawn) [Compound 54]: the inhibition at 1 µM was determined as 75% in experiment [1], 14% in experiment [2], 26% in experiment [3] and 100% in experiment [4].

For `C/C(=C\n1c2c(c3cc(C)ccc31)C1CCC(C2)N1C)c1ccc(F)cc1` (stereo not drawn) [Compound 124], the inhibition at 1 µM was determined as 91% in experiment [1], 33% in experiment [2], 85% in experiment [3] and 97% in experiment [4].

For the compound `Cc1ncc(CCn2c3c(c4cc(Cl)ccc42)C2CCC(C3)N2C)cn1` (stereo not drawn) [Compound 82], the inhibition at 1 µM in experiment [1] was 5%; in experiment [2] it was 2%; in experiment [3], 13%; in experiment [4], -16%.

Turning to `CN1[C@@H]2CC[C@H]1c1c(n(CC(=O)N3CCCCC3)c3ccccc13)C2` [Compound 101], the inhibition at 1 µM was 18% in experiment [1], 10% in experiment [2], 15% in experiment [3] and 93% in experiment [4].

With `CN1C2CCC1c1c(n(CCC(=O)N3CCNCC3)c3ccc(Cl)cc13)C2` (stereo not drawn) [Compound 9], the inhibition at 1 µM in experiment [1] amounted to 9%; in experiment [2] it was 7%; in experiment [3] it was 2%; in experiment [4], 15%.

In the case of `CN1[C@@H]2CC[C@H]1c1c(n(CC(C)(O)c3ccc(F)cc3)c3ccccc13)C2` (stereo partly drawn) [Compound 99], the inhibition at 1 µM was 25% in experiment [1], -6% in experiment [2], -2% in experiment [3] and 73% in experiment [4].

For `COc1ccc(/C(C)=C/n2c3c(c4cc(Cl)ccc42)C2CCC(C3)N2C)cc1F` (stereo not drawn) [Compound 136], the inhibition at 1 µM in experiment [1] came out at 91%; in experiment [2], 11%; in experiment [3] it was 31%; in experiment [4], 99%.

As for `C/C(=C\n1c2c(c3cc(C)ccc31)C1CCC(C2)N1C)c1ccc(Cl)cc1Cl` (stereo not drawn) [Compound 163], the inhibition at 1 µM in experiment [1] is 95%; in experiment [2] it was -16%; in experiment [3], 36%; in experiment [4] it was 94%.

For the compound `CCOC(=O)CCn1c2c(c3cc(Cl)ccc31)C1CCC(C2)N1C` (stereo not drawn) [Compound 70, ethyl 3-(2-chloro-11-methyl-5,6,7,8,9,10-hexahydro-7,10-iminocyclohept[b]indol-5-yl)propanoate], the inhibition at 1 µM in experiment [1] was 3%; in experiment [2], -3%; in experiment [3] it was 3%; in experiment [4], 16%.

Turning to `Cc1ccc2c(c1)c1c(n2CCc2ccc(C)nc2)CC2CCC1N2C` (stereo not drawn) [Compound 32], the inhibition at 1 µM in experiment [1] is 17%; in experiment [2], 10%; in experiment [3] it was 13%; in experiment [4] it was 15%.

In the case of `CN1C2CCC1c1c(n(CCc3cncc(Cl)c3)c3ccc(Cl)cc13)C2` (stereo not drawn) [Compound 87], the inhibition at 1 µM was 21% in experiment [1], -6% in experiment [2], 23% in experiment [3] and 51% in experiment [4].

On to `CN1C2CCC1c1c(n(CCC(N)=O)c3ccc(Cl)cc13)C2` (stereo not drawn) [Compound 73], for which the inhibition at 1 µM in experiment [1] is 6%; in experiment [2] it was -4%; in experiment [3] it was -4%; in experiment [4], -9%.

Take `Cc1ccc(CCn2c3c(c4ccccc42)C2CCC(C3)N2C)cn1` (stereo not drawn) [Compound 92]: the inhibition at 1 µM worked out at 15% in experiment [1], 0% in experiment [2], 3% in experiment [3] and 16% in experiment [4].

Take `Cc1ccc(CCn2c3c(c4ccccc42)[C@@H]2CC[C@H](C3)N2C)cn1` [Compound 102]: the inhibition at 1 µM in experiment [1] was 4%; in experiment [2], -1%; in experiment [3] it was -5%; in experiment [4] it was 11%.

As to `Cc1ccc2c(c1)c1c(n2C(=O)Cc2ccc(Cl)cc2)CC2CCC1N2C` (stereo not drawn) [Compound 162], the inhibition at 1 µM turned out to be 59% in experiment [1], 2% in experiment [2], 23% in experiment [3] and 92% in experiment [4].

As to `Cc1ccc(C#Cn2c3c(c4cc(Cl)ccc42)C2CCC(C3)N2C)cn1` (stereo not drawn) [Compound 139], the inhibition at 1 µM in experiment [1] is 93%; in experiment [2] it was -4%; in experiment [3], 26%; in experiment [4], 88%.

Regarding `CC(=O)N1CCN(C(=O)CCn2c3c(c4cc(Cl)ccc42)C2CCC(C3)N2C)CC1` (stereo not drawn) [Compound 8], the inhibition at 1 µM was -2% in experiment [1], 1% in experiment [2], -1% in experiment [3] and 1% in experiment [4].

As for `Cc1ccc2c(c1)c1c(n2CCc2nc(-c3ccccc3)cs2)CC2CCC1N2C` (stereo not drawn) [Compound 114], the inhibition at 1 µM in experiment [1] was found to be 46%; in experiment [2], 11%; in experiment [3], 29%; in experiment [4], 88%.

`CN1C2CCC1c1c(n(CC(=O)c3ccc(Cl)cc3)c3ccc(Cl)cc13)C2` (stereo not drawn) [Compound 111]: the inhibition at 1 µM in experiment [1] worked out at 89%; in experiment [2], 6%; in experiment [3], 38%; in experiment [4], 94%.

On to `C/C(=C\n1c2c(c3cc(C)ccc31)C1CCC(C2)N1C)c1ccc(Cl)cc1` (stereo not drawn) [Compound 116], for which the inhibition at 1 µM in experiment [1] is 83%; in experiment [2], -2%; in experiment [3], 10%; in experiment [4], 90%.

Take `CN1[C@@H]2CC[C@H]1c1c(n(CCc3ccc(C(F)(F)F)nc3)c3ccccc13)C2` [Compound 97]: the inhibition at 1 µM was 26% in experiment [1], -10% in experiment [2], 8% in experiment [3] and 25% in experiment [4].

On to `COc1ccc(C(C)(O)Cn2c3c(c4cc(C)ccc42)C2CCC(C3)N2C)cc1F` (stereo not drawn) [Compound 161], for which the inhibition at 1 µM is 55% in experiment [1], 12% in experiment [2], 25% in experiment [3] and 96% in experiment [4].
